Measured values from paper PMC8242589, “Cardiac Safety of Kinase Inhibitors – Improving Understanding and Prediction of Liabilities in Drug Discovery Using Human Stem Cell-Derived Models” (Frontiers in Cardiovascular Medicine, 2021).
Where two headings read alike, the source gives them in different places. Blank lines part the entries; values can stand above or below the compound they belong to.

Key:
[1] = tested on: hSC-CMs (Cor.4U Cardiomyocytes); test: CardioExcyte 96 impedance and EFP recording (beating rate, base impedance); type: cell-based, human; conditions: for activity at 0.03 µM / activity at 0.3 µM / activity at 3 µM / activity at 30 µM: Homo sapiens, Cardiomyocyte, vs baseline before drug (taken as 100%)
Method in brief: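 hSC-CM monolayers (Cor.4U), cultured 4 days at 37 °C, 5% CO2, recorded spontaneously beating; impedance sampled at 1 kHz, EFP at 10 kHz. Beating rate taken as reciprocal of inter-spike interval in EFP. Each test concentration expressed as fractional change versus pre-drug baseline (100%).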

[2] = tested on: hSC-CMs (Cor.4U Cardiomyocytes); test: Apoptosis assay (CellEvent Caspase-3/7 Green, IncuCyte ZOOM kinetics over 24 h); type: cell-based, human; parameters: key to Caspase / Caspase MEAN: % of time-matched vehicle control (green object area); conditions: for activity at 0.03 µM / activity at 0.3 µM / activity at 3 µM / activity at 30 µM / activity at 0.1 µM / activity at 1 µM: Homo sapiens, Cardiomyocyte, normalized to time-matched vehicle control; for Apoptosis (caspase-3/7 activation), result in words / Time to reach the maximum number of apoptotic cells: hSC-CMs, monitored over 24 h
Method in brief: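 Cor.4U cardiomyocytes were cultured 4 days at 5% CO2 and 37 °C, given a 2 h baseline, then treated with compound for 24 h. Caspase-3/7 green nuclear signal was imaged every 2 h, and total green object area per well (μm^2/well) was normalized to the time-matched vehicle control. At least three replicates were run per concentration.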

[3] = tested on: hSC-CMs (Cor.4U Cardiomyocytes); test: ATP assay (CellTiter-Glo Luminescent Cell Viability Assay); type: cell-based, human; conditions: for viability at 0.03 µM / viability at 0.3 µM / viability at 3 µM / viability at 30 µM: Homo sapiens, Cardiomyocyte, normalized to time-matched DMSO control
Method in brief: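 Human stem-cell-derived Cor.4U cardiomyocytes (25,000–30,000/well), cultured 4 days at 37 °C, switched to serum-free BMCC medium 12 h before dosing. Cellular ATP quantified by CellTiter-Glo luminescence and normalized to time-matched DMSO controls; at least three replicates per concentration.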

PI3K p110β = conditions: ref [23]–[25] (NVP-BEZ235), [27] (LY 294002), [28] (GDC-0941), [32] (TGX-221), [33] (CAL-101), [35] (CZC24832); read-out: Target IC50 p110β; cited from earlier work
PI3K p110δ = conditions: ref [23]–[25] (NVP-BEZ235), [27] (LY 294002), [28] (GDC-0941), [33] (CAL-101); read-out: Target IC50 p110δ; cited from earlier work
GSK-3β = conditions: ref [46] (CHIR99021), [48] (TWS119); read-out: Target IC50 GSK-3β; cited from earlier work
PI3K p110α = conditions: ref [23]–[25] (NVP-BEZ235), [27] (LY 294002), [28] (GDC-0941), [31] (HS-173), [33] (CAL-101); read-out: Target IC50 p110α; cited from earlier work
PI3K p110γ = conditions: ref [23]–[25] (NVP-BEZ235), [28] (GDC-0941), [33] (CAL-101), [35] (CZC24832); read-out: Target IC50 p110γ; cited from earlier work

- Effect on cardiomyocyte function in 3D surface plots (beating rate, base impedance, ATP), in words ([1]; hSC-CMs, 2 and 24 h): pronounced effects
SMILES: O=c1cc(N2CCOCC2)oc2c(-c3ccccc3)cccc12 [LY 294002]
- activity at 0.03 µM ([1]; 2h, read-out: BR): 112%
- activity at 0.03 µM ([1]; 2h, read-out: Base Imp): 72%
- activity at 0.03 µM ([1]; 24h, read-out: BR): 111%
- activity at 0.03 µM ([1]; 24h, read-out: Base Imp): 72%
- activity at 0.3 µM ([1]; 2h, read-out: BR): 109%
- activity at 0.3 µM ([1]; 2h, read-out: Base Imp): 71%
- activity at 0.3 µM ([1]; 24h, read-out: BR): 94%
- activity at 0.3 µM ([1]; 24h, read-out: Base Imp): 75%
- activity at 3 µM ([1]; 2h, read-out: BR): 94%
- activity at 3 µM ([1]; 2h, read-out: Base Imp): 70%
- activity at 3 µM ([1]; 24h, read-out: BR): 63%
- activity at 3 µM ([1]; 24h, read-out: Base Imp): 59%
- activity at 30 µM ([1]; 2h, read-out: BR): 0%
- activity at 30 µM ([1]; 2h, read-out: Base Imp): 50%
- activity at 30 µM ([1]; 24h, read-out: BR): 0%
- activity at 30 µM ([1]; 24h, read-out: Base Imp): 33%
- Reduction of base impedance ([1]; hSC-CMs, 2 and 24 h): more than 20%
- Reduction of beating rate ([1]; hSC-CMs, 2 and 24 h): more than 20%
- activity at 0.03 µM ([2]; 2h): 194%
- activity at 0.03 µM ([2]; 24h): 95%
- activity at 0.3 µM ([2]; 2h): 130%
- activity at 0.3 µM ([2]; 24h): 93%
- activity at 3 µM ([2]; 2h): 110%
- activity at 3 µM ([2]; 24h): 217%
- activity at 30 µM ([2]; 2h): 62%
- activity at 30 µM ([2]; 24h): 428%
- Apoptosis (caspase-3/7 activation), result in words [2]: induced apoptosis in hSC-CMs with a fast onset
- Time to reach the maximum number of apoptotic cells [2]: ≤ 12 h
- viability at 0.03 µM ([3]; 2h): 89%
- viability at 0.03 µM ([3]; 24h): 95%
- viability at 0.3 µM ([3]; 2h): 85%
- viability at 0.3 µM ([3]; 24h): 91%
- viability at 3 µM ([3]; 2h): 90%
- viability at 3 µM ([3]; 24h): 78%
- viability at 30 µM ([3]; 2h): 103%
- viability at 30 µM ([3]; 24h): 86%
- Decrease of ATP level ([3]; hSC-CMs, after 24 h of incubation): 20–25%

SMILES: Nc1cccc(-c2cc3c(Oc4cccc(O)c4)ncnc3[nH]2)c1 [TWS119]
- Effect on cardiomyocyte function in 3D surface plots (beating rate, base impedance, ATP), in words [1]: minimal functional effect
- Effect on hSC-CMs function (base impedance and beating rate), in words [1]: did not produce functionally relevant changes
- BR ([1]; 2h, 0.01 µM): 107
- Base Imp ([1]; 2h, 0.01 µM): 90
- BR ([1]; 2h, 0.1 µM): 102
- Base Imp ([1]; 2h, 0.1 µM): 86
- BR ([1]; 2h, 1 µM): 103
- Base Imp ([1]; 2h, 1 µM): 91
- BR ([1]; 2h, 10 µM): 103
- Base Imp ([1]; 2h, 10 µM): 90
- BR ([1]; 24h, 0.01 µM): 107
- Base Imp ([1]; 24h, 0.01 µM): 86
- BR ([1]; 24h, 0.1 µM): 105
- Base Imp ([1]; 24h, 0.1 µM): 91
- BR ([1]; 24h, 1 µM): 104
- Base Imp ([1]; 24h, 1 µM): 88
- BR ([1]; 24h, 10 µM): 99
- Base Imp ([1]; 24h, 10 µM): 84
- Caspase ([2]; 2h, 0.01 µM): 142
- Caspase ([2]; 2h, 0.1 µM): 127
- Caspase ([2]; 2h, 1 µM): 127
- Caspase ([2]; 2h, 10 µM): 105
- Caspase ([2]; 24h, 0.01 µM): 137
- Caspase ([2]; 24h, 0.1 µM): 114
- Caspase ([2]; 24h, 1 µM): 96
- Caspase ([2]; 24h, 10 µM): 113
- Apoptosis (caspase-3/7 activation), result in words [2]: did not have any functionally-relevant effect
- ATP ([3]; 2h, 0.01 µM): 94
- ATP ([3]; 2h, 0.1 µM): 98
- ATP ([3]; 2h, 1 µM): 98
- ATP ([3]; 2h, 10 µM): 96
- ATP ([3]; 24h, 0.01 µM): 102
- ATP ([3]; 24h, 0.1 µM): 98
- ATP ([3]; 24h, 1 µM): 98
- ATP ([3]; 24h, 10 µM): 104
- Effect on ATP level, in words ([3]; hSC-CMs, up to the highest test concentrations): did not impact the ATP level
- IC50 (GSK-3β): 30 nM

SMILES: CS(=O)(=O)N1CCN(Cc2cc3nc(-c4cccc5[nH]ncc45)nc(N4CCOCC4)c3s2)CC1 [GDC-0941, 2-(1 H -Indazol-4-yl)-6-(4-methanesulfonyl-piperazin-1-ylmethyl)-4-morpholin-4-yl-thieno[3,2-d]pyrimidine]
- activity at 0.03 µM ([2]; 2h): 157%
- activity at 0.03 µM ([2]; 24h): 80%
- activity at 0.1 µM ([2]; 0.1 µM, 2h): 138%
- activity at 0.1 µM ([2]; 0.1 µM, 24h): 77%
- activity at 0.3 µM ([2]; 2h): 106%
- activity at 0.3 µM ([2]; 24h): 113%
- activity at 1 µM ([2]; 1 µM, 2h): 104%
- activity at 1 µM ([2]; 1 µM, 24h): 219%
- Apoptosis (caspase-3/7 activation), result in words [2]: induced apoptosis in hSC-CMs with a fast onset
